We go through one compound from ChEMBL document CHEMBL6153037, “Developing dual-responsive quinolinium prodrugs of 8-hydroxyquinoline by harnessing the dual chelating sites” (Eur J Med Chem, 2025).

Active and inactive are the calls of the source. No cut-off for these calls is given here.

Data set [1] in a line: Stability of compound in PBS at pH 7.4 containing H2O2 assessed as compound remaining at 50 uM measured after 30 mins by HPLC analysis. It is filed as physicochemical. To be noted: buffer, pH 7.4, 0.5 h.
Data set [2] is described as follows: Prodrug conversion in solution containing ONOO- assessed as 8-HQ release. In kind it is ADME.
The nature of data set [3]: Cytotoxicity against human MCF-10A cells assessed as cell survival at 10 uM incubated for 48 hrs by MTT assay relative to control. It is filed as toxicity, cell-based. Particulars: read-out: Survival. (Formazan colour is commonly taken as a measure of viable cells.)
The subject of data set [4] is MDA-MB-231. The data set can be described thus: Cytotoxicity against human MDA-MB-231 cells assessed as increase in red fluorescence at 0.4 to 0.8 uM by Calcein AM/PI staining based analysis. It is filed as functional, cell-based. Particulars: dose 0.4-0.8 µM.
The test system of data set [5] is MDA-MB-231. Put plainly: Induction of apoptosis in human MDA-MB-231 cells assessed as early apoptotic cells at 0.4 uM incubated for 24 hrs by Annexin V-FITC/PI staining based flow cytometry (reference value: 7.39 %). It is filed as functional. (In general: In flow cytometry, cells or beads pass a laser one at a time.)
The test system of data set [6] is MDA-MB-231. Put plainly: Induction of apoptosis in human MDA-MB-231 cells assessed as late apoptotic cells at 0.4 uM incubated for 24 hrs by Annexin V-FITC/PI staining based flow cytometry (reference value: 5.81 %). In kind it is functional.
Data set [7] relates to MDA-MB-231. The data set can be described thus: Induction of apoptosis in human MDA-MB-231 cells assessed as necrotic cells at 0.4 uM incubated for 24 hrs by Annexin V-FITC/PI staining based flow cytometry (reference value: 0.59 %). In kind it is functional.
The test system of data set [8] is MDA-MB-231. The data set can be described thus: Induction of apoptosis in human MDA-MB-231 cells assessed as viable cells at 0.8 uM incubated for 24 hrs by Annexin V-FITC/PI staining based flow cytometry (reference value: 86.2 %). It is filed as functional. Particulars: read-out: Activity.
For data set [9], the system named is MDA-MB-231. The data set can be described thus: Induction of apoptosis in human MDA-MB-231 cells assessed as late apoptotic cells at 1.2 uM incubated for 24 hrs by Annexin V-FITC/PI staining based flow cytometry (reference value: 5.81 %). It is filed as functional.
A short description of data set [10]: Induction of apoptosis in human MCF-10A cells assessed as viable cells at 0.4 uM incubated for 24 hrs by Annexin V-FITC/PI staining based flow cytometry (reference value: 92.5 %). It is filed as toxicity, cell-based. To be noted: read-out: Activity.
Data set [11] deals with MCF-10A. The data set can be described thus: Induction of apoptosis in human MCF-10A cells assessed as necrotic cells at 0.4 uM incubated for 24 hrs by Annexin V-FITC/PI staining based flow cytometry (reference value: 1.38 %). It is filed as toxicity, cell-based.
Data set [12] in a line: Induction of apoptosis in human MCF-10A cells assessed as viable cells at 1.2 uM incubated for 24 hrs by Annexin V-FITC/PI staining based flow cytometry (reference value: 92.5 %). In kind it is toxicity, cell-based. To be noted: read-out: Activity.
Data set [13] has as its system MDA-MB-231. The data set can be described thus: Induction of cell cycle arrest in human MDA-MB-231 cells assessed as accumulation at G0/G1 phase at 0.4 uM by PI staining based flow cytometry (reference value: 64.6 %). In kind it is functional.
Data set [14] concerns MDA-MB-231. Put plainly: Induction of cell cycle arrest in human MDA-MB-231 cells assessed as accumulation at G0/G1 phase at 0.8 uM by PI staining based flow cytometry (reference value: 64.6 %). In kind it is functional.
Data set [15] relates to MDA-MB-231. Put plainly: Anti-migration activity in human MDA-MB-231 cells at 0.8 uM incubated for 48 hrs by wound healing assay (reference value: 65.2 %). In kind it is functional.
The subject of data set [16] is MDA-MB-231. Put plainly: Inhibition of mitochondrial membrane potential in human MDA-MB-231 cells assessed as increase in green fluorescence at 0.8 uM incubated for 24 hrs by JC-1 dye based analysis. It is filed as functional, cell-based.
The test system of data set [17] is MDA-MB-231. The data set can be described thus: Inhibition of mitochondrial membrane potential in human MDA-MB-231 cells assessed as decrease in ATP level at 0.4 to 0.8 uM incubated for 24 hrs by luminescence based analysis. Particulars: dose 0.4-0.8 µM. It is filed as functional, cell-based.
In data set [18] the test system is MCF-10A. The data set can be described thus: Inhibition of mitochondrial membrane potential in human MCF-10A cells assessed as decrease in ATP level at 0.4 to 0.8 uM incubated for 24 hrs by luminescence based analysis. It is filed as toxicity, cell-based. To be noted: dose 0.4-0.8 µM.
The test system of data set [19] is MCF-10A. The data set can be described thus: Inhibition of mitochondrial membrane potential in human MCF-10A cells assessed as increase in intracellular calcium level at 0.4 to 0.8 uM incubated for 24 hrs by Fluo-4 AM dye based analysis. In kind it is toxicity, cell-based. To be noted: dose 0.4-0.8 µM. In general terms: Calcium assays in cells follow changes in intracellular calcium, usually with a dye or a luminescent sensor.

Data set [20] relates to MDA-MB-231. The data set can be described thus: Antitumor activity against human MDA-MB-231 cells assessed as sphere-forming efficiency incubated for 6 hrs followed by medium replacement without compound measured after 6 days by microscopic analysis (reference value: 1.07 %). It is filed as functional.
Data set [21] has as its system MDA-MB-231. Put plainly: Antitumor activity against human MDA-MB-231 cells xenografted in BALB/c nude mouse assessed as tumor size at 20 mg/kg, iv administered every two days for 21 days (reference value: 1940 mm3). In kind it is functional. To be noted: time 21 day.
Data set [22] is described as follows: Toxicity in BALB/c nude mouse xenografted with human MDA-MB-231 cells assessed as body weight change at 10 to 20 mg/kg, iv administered every two days for 21 days. It is filed as organism-based. Particulars: in vivo, 504 h, dose 10-20 mg/kg, time 21 day.

In the case of `CC1(C)OB(c2ccc(C[n+]3cccc4cccc(O)c43)cc2)OC1(C)C.[Br-]`, in data set [1], the Stability entry is given as “Unstable”. Moreover, in [2], the Drug metabolism entry is recorded as “metabolite_detected”. Also, the viability at 48 h, 10 µM in data set [3] was 86%. Moreover, the outcome in the data set on MDA-MB-231 [4] was Active. Besides, the Activity with MDA-MB-231 [5] is recorded as 14.2%; with MDA-MB-231 [6], 13.2%; in the data set with MDA-MB-231 [7], 1.47%; in the data set with MDA-MB-231 [9], 16.4%; in the data set on MCF-10A [11], 0.36%; in the data set on MDA-MB-231 [13] it was 68.1%. Moreover, the Activity in the data set with MDA-MB-231 [14] was 74.2%; in the data set on MDA-MB-231 [15], 12.8%; in the data set on MCF-10A [18], “Non-toxic”; in the data set on MCF-10A [19], “Non-toxic”; with MDA-MB-231 [20], 0.22%; in the data set on MDA-MB-231 [21], 710 mm3. Also, in data set [22], the Activity entry is on record as “Non-toxic”. For the same compound, in the data set with MDA-MB-231 [8], the viability at 0.8 µM is 24.8%. The viability at 24 h, 0.4 µM in [10] was 94.9%. The viability at 24 h, 1.2 µM in [12] is 93.3%. Further, the inhibition entry in the data set with MDA-MB-231 [16] and with MDA-MB-231 [17] was “Active” in each case.
